Laboratory results taken from the NIST ThermoML archive (doi:10.1016/j.jct.2016.07.020).

Experiment: mn = molality of the nth substance listed, in mol/kg
Conditions: 101.3 kPa, Liquid, Capillary tube (Ostwald / Ubbelohde) method

CO[C@H]1O[C@H](CO)[C@@H](O)[C@H](O)[C@H]1O [methyl-α-D-glucopyranoside] + O
viscosity [mPa·s]
Conditions | m1 = 0.0397 | m1 = 0.06 | m1 = 0.08 | m1 = 0.0999 | m1 = 0.1191 | m1 = 0.1402 | m1 = 0.1599 | m1 = 0.1801
288.15 K | 1.159 | 1.172 | 1.183 | 1.194 | 1.206 | 1.218 | 1.23 | 1.241
298.15 K | 0.906 | 0.916 | 0.925 | 0.931 | 0.94 | 0.948 | 0.956 | 0.964
308.15 K | 0.732 | 0.739 | 0.745 | 0.751 | 0.757 | 0.764 | 0.77 | 0.777
318.15 K | 0.606 | 0.611 | 0.616 | 0.621 | 0.625 | 0.631 | 0.636 | 0.64

OC[C@@H](O)[C@H](O)[C@H](O)[C@@H](O)CO [dulcitol] + O
viscosity [mPa·s]
Conditions | m1 = 0.04 | m1 = 0.0603 | m1 = 0.0797 | m1 = 0.1002 | m1 = 0.1196 | m1 = 0.14 | m1 = 0.1597 | m1 = 0.1795
288.15 K | 1.161 | 1.172 | 1.183 | 1.191 | 1.202 | 1.213 | 1.221 | 1.229
298.15 K | 0.904 | 0.912 | 0.919 | 0.926 | 0.933 | 0.939 | 0.948 | 0.953
308.15 K | 0.73 | 0.736 | 0.741 | 0.746 | 0.751 | 0.756 | 0.761 | 0.766
318.15 K | 0.602 | 0.607 | 0.61 | 0.614 | 0.617 | 0.623 | 0.626 | 0.628

O=C[C@H](O)[C@@H](O)[C@@H](O)[C@H](O)CO [(+)-galactose] + O
viscosity [mPa·s]
Conditions | m1 = 0.0402 | m1 = 0.0601 | m1 = 0.0792 | m1 = 0.0992 | m1 = 0.1199 | m1 = 0.139 | m1 = 0.1594 | m1 = 0.1793
288.15 K | 1.158 | 1.168 | 1.179 | 1.19 | 1.203 | 1.214 | 1.224 | 1.237
298.15 K | 0.905 | 0.913 | 0.92 | 0.929 | 0.938 | 0.945 | 0.953 | 0.961
308.15 K | – | 0.737 | 0.743 | 0.749 | 0.755 | 0.76 | 0.766 | 0.773
318.15 K | 0.606 | 0.611 | 0.615 | 0.618 | 0.624 | 0.626 | 0.631 | 0.635

O=C[C@H](O)[C@@H](O)[C@H](O)CO [D-xylose] + O
viscosity [mPa·s]
Conditions | m1 = 0.0399 | m1 = 0.0601 | m1 = 0.0797 | m1 = 0.0993 | m1 = 0.1195 | m1 = 0.1391 | m1 = 0.1583 | m1 = 0.1783
288.15 K | 1.155 | 1.163 | 1.173 | 1.181 | 1.188 | 1.197 | 1.206 | 1.214
298.15 K | 0.901 | 0.909 | 0.914 | 0.92 | 0.927 | 0.932 | 0.937 | 0.944
308.15 K | 0.727 | 0.733 | 0.739 | 0.742 | 0.747 | 0.751 | 0.756 | 0.762
318.15 K | 0.603 | 0.607 | 0.61 | 0.614 | 0.618 | 0.623 | 0.626 | 0.63

O=C[C@H](O)[C@@H](O)[C@H](O)[C@H](O)CO [D-glucose] + O
viscosity [mPa·s]
Conditions | m1 = 0.04 | m1 = 0.0599 | m1 = 0.0797 | m1 = 0.0999 | m1 = 0.1197 | m1 = 0.14 | m1 = 0.1598 | m1 = 0.1797
288.15 K | 1.161 | – | 1.181 | 1.193 | 1.204 | 1.216 | 1.227 | 1.241
298.15 K | 0.907 | 0.915 | 0.924 | 0.932 | 0.94 | 0.947 | 0.954 | 0.961
308.15 K | 0.733 | 0.737 | 0.744 | 0.751 | 0.756 | 0.762 | 0.768 | 0.774
318.15 K | 0.606 | 0.61 | 0.614 | 0.62 | 0.624 | 0.629 | 0.636 | 0.64

OC[C@H]1OC(O)C[C@@H](O)[C@@H]1O (stereo partly drawn) [2-deoxy-D-glucose] + O
viscosity [mPa·s]
Conditions | m1 = 0.04 | m1 = 0.06 | m1 = 0.0797 | m1 = 0.1001 | m1 = 0.1201 | m1 = 0.1399
288.15 K | 1.161 | 1.171 | 1.18 | 1.191 | 1.201 | 1.213
298.15 K | 0.907 | 0.913 | 0.919 | 0.928 | 0.936 | 0.945
308.15 K | 0.73 | 0.736 | 0.742 | 0.749 | 0.754 | 0.761
318.15 K | 0.605 | 0.609 | 0.615 | 0.619 | 0.624 | 0.629

OC[C@@H](O)[C@H](O)[C@@H](O)CO [xylitol] + O
viscosity [mPa·s]
Conditions | m1 = 0.0399 | m1 = 0.0599 | m1 = 0.08 | m1 = 0.0999 | m1 = 0.1196 | m1 = 0.1396 | m1 = 0.1593 | m1 = 0.1801
288.15 K | 1.16 | 1.17 | 1.179 | 1.188 | 1.197 | 1.206 | 1.214 | 1.223
298.15 K | 0.905 | 0.913 | 0.919 | 0.926 | 0.933 | 0.939 | 0.947 | 0.954
308.15 K | 0.73 | 0.736 | 0.742 | 0.746 | 0.751 | 0.757 | 0.762 | 0.766
318.15 K | 0.604 | 0.608 | 0.612 | 0.616 | 0.621 | 0.625 | 0.63 | 0.634

O=C1O[C@H]([C@@H](O)CO)C(O)=C1O [L-ascorbic acid] + O
viscosity [mPa·s]
Conditions | 288.15 K | 298.15 K | 308.15 K | 318.15 K
m1 = 0.05 | 1.163 | 0.91 | 0.732 | 0.605
m1 = 0.15 | 1.21 | 0.944 | 0.759 | 0.625
m1 = 0.25 | 1.257 | 0.979 | 0.787 | 0.646
m1 = 0.35 | 1.305 | 1.017 | 0.813 | 0.669
